Where “and” joins values, the source holds several entries; their conditions need not be identical. Equal entries are not always repeated.
Tested on: peripheral blood lymphocytes collected from swine exposed to ASFV
Assay type: cell-based

Substance	Number of Spots
2205 (SVEELLSAV) [compound 2205]	13
1852 (HTLIISPEF) [compound 1852]	15
884 (ISAINHFNY) [compound 884]	19
84 (KVLGLLLGY) [compound 84]	16
1345 (RVRFSLIRV) [compound 1345]	16
241 (MVYNFNTLY) [compound 241]	16
1507 (ATVSAIELEY) [compound 1507]	13
1912 (KQFEMFNMVY) [compound 1912]	12
906 (WVGYNNVCYY) [compound 906]	12
2118 (MMQTAIQKNYF) [compound 2118]	13
467 (QAYALEYAM) [compound 467]	17
1172 (RCQHHAFSY) [compound 1172]	12
908 (VGYNNVCYY) [compound 908]	16
703 (STVITTAYNF) [compound 703]	13
744 (SKFCNHMFFR) [compound 744]	18
896 (SGLQSFYLY) [compound 896]	18 and 26
357 (YSYCFIKHF) [compound 357]	13
1295 (SQMGAHGQL) [compound 1295]	17
1706 (RLQTPIPVY) [compound 1706]	13
1875 (ISPRISYQF) [compound 1875]	12
1159 (MAEIRFLSM) [compound 1159]	12
1207 (DYSLTFLLKK) [compound 1207]	17
1287 (VHFNAHFKPY) [compound 1287]	14
971 (LTLSSNYFY) [compound 971]	12
872 (RVDMNRFFQF) [compound 872]	15 and 18
1580 (SNMKQFCKI) [compound 1580]	12

Substance	Number of Spots
1514 (EAAELYFRL) [compound 1514]	15
329 (ASLDYGMNL) [compound 329]	12
1753 (YFDTFANAM) [compound 1753]	13
1761 (SVYHVQEEL) [compound 1761]	12
1509 (TLAQVFESF) [compound 1509]	17
1436 (NKANKAFYI) [compound 1436]	13
827 (NNVSYYWGL) [compound 827]	13
1129 (IMDDLVEEY) [compound 1129]	14
1810 (KTIFNNVRY) [compound 1810]	13
1519 (FGMMNQTNY) [compound 1519]	13
1517 (ATKKALIHF) [compound 1517]	13
1628 (SAMLEFKKF) [compound 1628]	12
1488 (STQFMIQYF) [compound 1488]	13
1952 (LSKNIAAEY) [compound 1952]	17
2241 (YNLTEAIQYF) [compound 2241]	14
1468 (ITYLNNMGY) [compound 1468]	13
1511 (RSLSNFQAL) [compound 1511]	17
1991 (KQELSRLIY) [compound 1991]	29
85 (KSELSYWCTY) [compound 85]	20
757 (CFMMQCKSIY) [compound 757]	16
1388 (LVYELPAPF) [compound 1388]	14
2211 (ASFKEGLSL) [compound 2211]	12
889 (MMHYPTFNW) [compound 889]	16
1573 (KVIRAHNFI) [compound 1573]	12
635 (IRGRSLNMLSL) [compound 635]	12
1503 (KTDPNFKNL) [compound 1503]	13

Substance	Number of Spots
1106 (CSSCMVRTY) [compound 1106]	130
1390 (QQMLTRHIY) [compound 1390]	12
1437 (KANKAFYINH) [compound 1437]	12 and 16
1840 (SLANHTVKYY) [compound 1840]	14
1830 (SVMALAKMY) [compound 1830]	12
2141 (RFFKKLLTHF) [compound 2141]	12
285 (QAMLSSIQYY) [compound 285]	14
1107 (RTIPVAWDRF) [compound 1107]	18
1111 (RTDFVWVADL) [compound 1111]	13
1950 (ELVDHIFNY) [compound 1950]	16
865 (RRVHASYPGY) [compound 865]	15
1188 (VSNILHSVF) [compound 1188]	13
1120 (SLPDVSTLPY) [compound 1120]	13
2146 (KLLTHFNIYR) [compound 2146]	16
1736 (VTQRNQNYF) [compound 1736]	13
726 (DMYSVIFNIKY) [compound 726]	14
2038 (CGKRNCPLYY) [compound 2038]	12
756 (FTDNLCFMM) [compound 756]	19
1941 (AIEEEDIQF) [compound 1941]	12
1512 (QIYKTLLEY) [compound 1512]	21
926 (KQKHVSLLY) [compound 926]	16
1184 (LSDLRNFSF) [compound 1184]	16
925 (KKQKHVSLL) [compound 925]	14
1955 (SSAELYRKM) [compound 1955]	14
309 (FTKAIHYFYKR) [compound 309]	12
1279 (YPYYIYKIF) [compound 1279]	12

Substance	Number of Spots
1227 (ETYARLSSY) [compound 1227]	12
1348 (LMSALKWPIEY) [compound 1348]	12
960 (ETTLINCTYL) [compound 960]	13
447 (NIIHTIYQSY) [compound 447]	331
297 (LRHNFTKAIHY) [compound 297]	16
1631 (FTQITRQTF) [compound 1631]	12
963 (TLINCTYLTL) [compound 963]	19
1400 (KESAETIYTF) [compound 1400]	14
1648 (RTLMDQPTY) [compound 1648]	14
585 (VVDDVPSIDY) [compound 585]	12
1531 (MVFNQLIASY) [compound 1531]	12
1880 (FLNAYAHKL) [compound 1880]	12
2166 (KIDDFIRLY) [compound 2166]	13
1627 (GTDLYQSAM) [compound 1627]	12
369 (KHTLQWLGLY) [compound 369]	16
1196 (KEMQDYSLTF) [compound 1196]	17
2037 (MCGKRNCPLY) [compound 2037]	12
386 (RTENYNLVCEY) [compound 386]	110
2213 (KTSSNIILY) [compound 2213]	12
1205 (QDYSLTFLLK) [compound 1205]	17
641 (GRSLNMLSLI) [compound 641]	16
931 (SIDYWVSFNK) [compound 931]	12
70 (KSMPLIVENSY) [compound 70]	35
743 (SKFCNHMFF) [compound 743]	16
977 (LSSNYFYTF) [compound 977]	18
275 (ATYNHRKILIY) [compound 275]	21

Substance	Number of Spots
2171 (FIRLYPHIFY) [compound 2171]	18
1379 (VVSASAINF) [compound 1379]	13
1264 (RINRNYYPYYI) [compound 1264]	12
1543 (NIYNYDYSF) [compound 1543]	12
1649 (TLMDQPTY) [compound 1649]	18
923 (VLLRDSGYY) [compound 923]	14 and 16
283 (YTHLNTWRL) [compound 283]	18
2265 (RYRHFKDWRLI) [compound 2265]	13
2185 (HIFYRPLYRY) [compound 2185]	15
1091 (LFPQYISYY) [compound 1091]	17
1658 (AFINSTDFLY) [compound 1658]	12
2222 (ISFSEMLTRYW) [compound 2222]	12
1510 (FTDNAPAGHYY) [compound 1510]	15
1459 (KITSVTEFY) [compound 1459]	19
1828 (RSQTECGPY) [compound 1828]	14
2175 (RLYPHIFYR) [compound 2175]	16
1759 (VQLANSSVYY) [compound 1759]	15
725 (SDMYSVIFNI) [compound 725]	15
1278 (NYYPYYIY) [compound 1278]	16
2137 (KNYFRFFKKL) [compound 2137]	12
842 (SSMHSGMLY) [compound 842]	13 and 23
2181 (YPHIFYRPLY) [compound 2181]	12
962 (TTLINCTY) [compound 962]	12
2193 (ALNRHITTY) [compound 2193]	12
1523 (STAQVHLDF) [compound 1523]	14
1372 (NVSRAREFY) [compound 1372]	12
